The structures appear in SMILES notation. pIC50: −log10 of the molar value. Read-outs that look alike come from different tables or passages of the source.

Assay [1] deals with human FXIa protein (hFXIa) (Homo sapiens (Human), UniProt P03951). Kind of assay: Enzyme activity assay in vitro (FXIa, S-2366 substrate). In kind it is biochemical. The note with it: absorbance at OD405nm. The method, then:
II. Enzyme Activity Assay In Vitro
Method: the test compound was dissolved in 10 mM mother liquor with DMSO, and stored at −80° C. until use.

The test system of another assay is human plasma. In words: Determination of activated partial thromboplastin time (APTT). It is filed as biochemical. The protocol:
1. Determination of Activated Partial Thromboplastin Time (APTT)
1. Preparation of human plasma: human venous whole blood was collected and placed in 3.2% sodium citrate anticoagulation tube (human blood: sodium citrate=9:1 (V/V)). The tube was centrifuged at ˜1560 g for 8 min, to obtain human plasma.
2. Preparation of the test sample: the test compound was dissolved in DMSO, and diluted in gradient to obtain 3000, 600, 120, 24, 4.8 μM stock solutions; each stock solution was mixed with the human plasma as prepared under item 1 at a ratio of 1:49 (V/V).
3. Negative control: DMSO solvent without the test compound was diluted in gradient to obtain 3000, 600, 120, 24, 4.8 μM stock solutions; each stock solution was mixed with the human plasma as prepared under item 1 at a ratio of 1:49 (V/V).
4. Test: After mixing the test solution of the above test sample and that of the negative control separately for 3 to 5 minutes, 30 μL of the test solution was added to the machine (MC-2000 coagulometer), and pre-warmed at 37° C. for 2 min; 30 μL of APTT reagent (MDC Hemostasis, Cat: 300025) was added and incubated at 37° C. for 5 min; and then 30 μL CaCl2 was added to initiate the APTT measurement.
According to the measured APTT result, APTT ratio was calculated according to the following formula. APTT ratio=(APTTtest compound/APTTnegative control).
Exponential equation was used to fit the Lg (concentration) to APTT ratio (Origin Pro 8.5.1 SR2), the drug working concentrations at 1.5 times APTT ratio and 2 times APTT ratio were calculated, namely EC150 and EC200.

Where [2] appears, read: drug working concentration at 1.5 times APTT ratio, read-out: EC150.
The mark [3] stands for this setting: drug working concentration at 2 times APTT ratio, read-out: EC200.

Sequence of human FXIa protein (hFXIa) (P03951 388-625): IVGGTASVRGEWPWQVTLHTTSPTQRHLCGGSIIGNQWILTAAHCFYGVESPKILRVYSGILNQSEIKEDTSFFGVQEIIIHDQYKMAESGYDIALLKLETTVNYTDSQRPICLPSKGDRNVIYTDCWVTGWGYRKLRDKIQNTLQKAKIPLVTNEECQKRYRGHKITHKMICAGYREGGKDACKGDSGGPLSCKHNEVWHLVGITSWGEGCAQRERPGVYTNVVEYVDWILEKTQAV
Sequence of human FXIa protein (hFXIa) (P03951 19-387 partner): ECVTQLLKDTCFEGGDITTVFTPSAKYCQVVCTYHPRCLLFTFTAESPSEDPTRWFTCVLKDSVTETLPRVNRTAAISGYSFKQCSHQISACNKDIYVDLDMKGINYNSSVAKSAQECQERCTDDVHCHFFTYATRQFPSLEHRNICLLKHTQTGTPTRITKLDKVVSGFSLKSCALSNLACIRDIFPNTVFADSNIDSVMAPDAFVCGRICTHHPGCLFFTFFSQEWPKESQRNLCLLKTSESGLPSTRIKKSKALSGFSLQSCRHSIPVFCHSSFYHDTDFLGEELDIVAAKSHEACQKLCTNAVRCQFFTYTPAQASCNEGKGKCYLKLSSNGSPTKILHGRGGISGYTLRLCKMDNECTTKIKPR

`Cn1cc(C2CCCN(C(=O)N3C(=O)[C@H](Cc4ccnc(N)c4)[C@H]3C(=O)O)C2)cn1` (stereo partly shown) [Example 28]: in assay [1], the pIC50 is 7.64.

As to `NC(=O)[C@@H]1[C@@H](Cc2ccnc(N)c2)C(=O)N1C(=O)N1CCC[C@@H](c2ccccc2)C1` [Example 31], the pIC50 in assay [1] was 8.55.

For `CNC(=O)[C@@H]1[C@@H](Cc2ccnc(N)c2)C(=O)N1C(=O)N1CCCC(c2ccc3c(c2)OC(F)(F)O3)C1` (stereo partly shown) [Example 33], the pIC50 in assay [1] was 8.46.

Turning to `CS(=O)(=O)NC(=O)[C@@H]1[C@@H](Cc2ccnc(N)c2)C(=O)N1C(=O)N1CCC[C@H](c2ccccc2)C1` [Example 25], in assay [1], the pIC50 is 8.49.

`COC(=O)Nc1cccc(C2CCCN(C(=O)N3C(=O)[C@H](Cc4ccnc(N)c4)[C@H]3C(=O)O)C2)c1` (stereo partly shown) [Example 42]: the pIC50 in assay [1] was 8.04.

`Nc1cc(C[C@H]2C(=O)N(C(=O)N3CCCC(c4ccc5c(c4)OC(F)(F)O5)C3)[C@@H]2C(=O)O)ccn1` (stereo partly shown) [Example 26] gave a pIC50 in assay [1] of 7.95.

On to `N#Cc1ccc2c(c1)CCN2C(=O)N1C(=O)[C@H](Cc2ccnc(N)c2)[C@H]1C(=O)O` [Example 13], for which, in assay [1], the pIC50 was 7.63.

In assay [1], `CNC(=O)[C@@H]1[C@@H](Cc2ccnc(N)c2)C(=O)N1C(=O)N1CCCC(c2ccc(F)cc2)C1` (stereo partly shown) [Example 30] gave a pIC50 of 8.62.

In assay [1], `CNC(=O)[C@@H]1[C@@H](Cc2ccnc(N)c2)C(=O)N1C(=O)N1CCCCC1c1ccccc1` (stereo partly shown) [Example 19] had a pIC50 of 8.22.

Regarding `Nc1cc(C[C@H]2C(=O)N(C(=O)N3CCCC(c4cccc5ccccc45)C3)[C@@H]2C(=O)O)ccn1` (stereo partly shown) [Example 46], in assay [1], the pIC50 was 8.11.

Turning to `CNC(=O)[C@@H]1[C@@H](Cc2ccnc(N)c2)C(=O)N1C(=O)N1CCC[C@H](c2ccccc2)C1` [Example 23], the figures for the concentration giving fixed-fold APTT prolongation with human plasma (setting [2]) and with human plasma (setting [3]) were 1.48 µM and 4.4 µM, respectively. The molecule also had a pIC50 in assay [1] of 8.82.

On to `CN(C)C(=O)[C@@H]1[C@@H](Cc2ccnc(N)c2)C(=O)N1C(=O)N1CCCCC1c1ccccc1` (stereo partly shown) [Example 20], for which, in assay [1], the pIC50 was 7.97.

`CS(=O)(=O)NC(=O)[C@@H]1[C@@H](Cc2ccnc(N)c2)C(=O)N1C(=O)N1CCCCC1c1ccccc1` (stereo partly shown) [Example 18] had a pIC50 in assay [1] of 7.97.

In the case of `CNC(=O)[C@@H]1[C@@H](Cc2ccnc(N)c2)C(=O)N1C(=O)N1CCC[C@@H](c2ccccc2)C1` [Example 41], the concentration giving fixed-fold APTT prolongation in the assay with human plasma (setting [2]) stood at 2.18 µM; in the assay with human plasma (setting [3]), 8.22 µM. In assay [1], this molecule had a pIC50 of 8.39.

Consider `CNC(=O)[C@@H]1[C@@H](Cc2ccnc(N)c2)C(=O)N1C(=O)N1CCCC(c2ccccc2)C1` (stereo partly shown) [Example 51], for which, in assay [1], the pIC50 is 8.48.

The molecule `NC(=O)[C@@H]1[C@@H](Cc2ccnc(N)c2)C(=O)N1C(=O)N1CCCC(c2ccc3c(c2)OC(F)(F)O3)C1` (stereo partly shown) [Example 32] showed a pIC50 in assay [1] of 8.39.

As to `CN(C)C(=O)[C@@H]1[C@@H](Cc2ccnc(N)c2)C(=O)N1C(=O)N1CCC[C@H](c2ccccc2)C1` [Example 24], the pIC50 in assay [1] is 8.44.

As for `Nc1cc(C[C@H]2C(=O)N(C(=O)N3CCC[C@H](c4ccccc4)C3)[C@@H]2C(=O)O)ccn1` [Example 16], the concentration giving fixed-fold APTT prolongation in the assay with human plasma (setting [2]) was determined as 1.41 µM; in the assay with human plasma (setting [3]) it was 6.99 µM. The pIC50 in assay [1] was 8.72.

Regarding `CNC(=O)[C@@H]1[C@@H](Cc2ccnc(N)c2)C(=O)N1C(=O)N1CCCC(C2CCCCCCC2)C1` (stereo partly shown) [Example 45], the pIC50 in assay [1] was 8.28.

The record behind these values is patent US11345679B2, “Quaternary lactam compound and pharmaceutical use thereof” (SHANGHAI MEIYUE BIOTECH DEVELOPMENT CO., LTD., priority 2018, dated 2022).
